One test concerns the target T1, hCRY1 (Homo sapiens, UniProt Q16526).
T1 sequence (Q16526 1-586): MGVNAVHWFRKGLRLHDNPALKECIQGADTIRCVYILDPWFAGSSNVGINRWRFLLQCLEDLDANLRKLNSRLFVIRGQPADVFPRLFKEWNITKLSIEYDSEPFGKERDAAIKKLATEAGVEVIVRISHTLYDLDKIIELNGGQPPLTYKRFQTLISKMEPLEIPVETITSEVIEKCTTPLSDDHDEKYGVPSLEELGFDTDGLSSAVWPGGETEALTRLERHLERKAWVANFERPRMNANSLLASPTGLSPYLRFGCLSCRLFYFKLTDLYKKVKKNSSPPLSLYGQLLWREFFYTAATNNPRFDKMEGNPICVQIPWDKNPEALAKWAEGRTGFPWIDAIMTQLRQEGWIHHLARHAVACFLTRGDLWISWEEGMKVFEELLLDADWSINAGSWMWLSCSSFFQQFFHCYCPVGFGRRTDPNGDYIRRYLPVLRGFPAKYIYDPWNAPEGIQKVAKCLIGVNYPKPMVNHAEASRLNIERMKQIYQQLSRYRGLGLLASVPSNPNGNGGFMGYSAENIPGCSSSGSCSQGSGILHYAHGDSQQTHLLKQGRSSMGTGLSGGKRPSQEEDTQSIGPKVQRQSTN
The experiment in a line: Surface plasmon resonance, CRY1. Type of test: binding. Set-up: GST; purchased MyBioSource; host or cells: baculovirus expression system. The note with it: SPR, His-tagged CRY1, Langmuir 1:1 model. The protocol: We used a ProteOn XPR36 system (Bio-Rad, Hercules, CA, USA) equipped with a HTE sensor chip (high capacity tris-NTA for histidine-tagged […] capture, Bio-Rad) for surface plasmon resonance analyses. Purified target proteins (6xHis- and GST-tagged hCRY1 and hCRY2) were prepared by a baculovirus expression system (MyBioSource, San Diego, CA, USA). Phosphate buffered saline (PBS) plus 0.005% Tween 20 was used as the running buffer. The 6xHis-hCRY1 and 6xHis-hCRY2 proteins were immobilized onto separate channels of a HTE chip by injecting 210 μL protein sample (2.0 μg/mL) into flow cells (30 μL/min) to allow saturation. Serially diluted compound 2d samples (50–800 μM) were prepared in 4% DMSO in TBS-T buffer. […] Recorded resonance units (RU) were normalized and plotted against chemical concentration. […]
The EC50 values for luciferase reporter assay were calculated based on a logistic four-parametric equation using the mean values of intrinsic activation (SigmaPlot 10.0; Systat Software Inc., San Jose, CA, USA). The IC50 and t1/2 values for the cytochrome P450 inhibition assay and metabolic stability test were calculated by WinNonlin software (Pharsight, Mountain View, CA, USA). Pharmacokinetic parameters were calculated using non-compartmental analysis (WinNonlin v.8.3; Pharsight, Mountain View, CA, USA). […]

The target of another test is T2, CYP2C9 (Homo sapiens, UniProt P11712).
T2 construct: pooled human liver microsomes (HLMs, XTreme 200, XenoTech, Lenexa, KS, USA); tissue XenoTech XTreme 200; host or cells: pooled human liver microsomes
T2 sequence (P11712 whole entry): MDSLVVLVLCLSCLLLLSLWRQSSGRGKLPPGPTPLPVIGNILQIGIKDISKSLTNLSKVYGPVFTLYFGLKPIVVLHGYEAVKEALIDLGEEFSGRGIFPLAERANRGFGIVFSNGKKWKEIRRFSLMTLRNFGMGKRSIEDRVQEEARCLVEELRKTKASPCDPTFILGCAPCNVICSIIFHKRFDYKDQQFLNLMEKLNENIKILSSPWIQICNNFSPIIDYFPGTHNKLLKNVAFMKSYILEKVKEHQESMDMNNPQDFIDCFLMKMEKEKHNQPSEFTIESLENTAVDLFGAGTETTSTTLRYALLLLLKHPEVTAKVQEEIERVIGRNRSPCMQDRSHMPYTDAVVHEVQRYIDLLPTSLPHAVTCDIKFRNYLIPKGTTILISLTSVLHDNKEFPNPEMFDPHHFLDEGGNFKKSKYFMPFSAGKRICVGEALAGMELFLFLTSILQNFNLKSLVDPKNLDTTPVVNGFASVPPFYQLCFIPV
The experiment in a line: Cytochrome P450 inhibition assay (cocktail method, human liver microsomes), tolbutamide 4-methylhydroxylation. The test is classed as in vitro ADME. As to the method:
(§1) The inhibitory effects of KS15 and compound 5d on the metabolism of five cytochrome P450 (P450) probe substrates were evaluated using previous methods with slight modifications. The following P450 probe substrates were used: phenacetin (100 μM) for CYP1A2, tolbutamide (100 μM) for CYP2C9, omeprazole (20 μM) for CYP2C19, dextromethorphan (5 μM) for CYP2D6, and midazolam (5 μM) for CYP3A. Incubation mixtures containing pooled human liver microsomes (HLMs, XTreme 200, XenoTech, Lenexa, KS, USA), P450 probe substrates, and KS15 or compound 5d (final concentrations: 0, 0.5, 2, 5, 20, and 50 μM) were preincubated for 5 min at 37 °C. […] After centrifugation at 18,000× g (5 min, 4 °C), supernatant aliquots were analyzed by liquid chromatography-tandem mass spectrometry (LC-MS/MS). […]
(§2) All metabolites and IS were separated on a Kinetex C18 column (100 mm × 2.1 mm, 2.6 μm ID., Phenomenex, Torrance, CA, USA) and analyzed using an LC-MS/MS system (LCMS 8060, Shimadzu, Tokyo, Japan) equipped with an electrospray ionization (ESI) interface. […]
(§3) The EC50 values for luciferase reporter assay were calculated based on a logistic four-parametric equation using the mean values of intrinsic activation (SigmaPlot 10.0; Systat Software Inc., San Jose, CA, USA). […] Pharmacokinetic parameters were calculated using non-compartmental analysis (WinNonlin v.8.3; Pharsight, Mountain View, CA, USA). […]

For another test, the target named is T3, CYP2D6 (Homo sapiens, UniProt P10635).
T3 construct: pooled human liver microsomes (HLMs, XTreme 200, XenoTech, Lenexa, KS, USA); tissue XenoTech XTreme 200; host or cells: pooled human liver microsomes
T3 sequence (P10635 whole entry): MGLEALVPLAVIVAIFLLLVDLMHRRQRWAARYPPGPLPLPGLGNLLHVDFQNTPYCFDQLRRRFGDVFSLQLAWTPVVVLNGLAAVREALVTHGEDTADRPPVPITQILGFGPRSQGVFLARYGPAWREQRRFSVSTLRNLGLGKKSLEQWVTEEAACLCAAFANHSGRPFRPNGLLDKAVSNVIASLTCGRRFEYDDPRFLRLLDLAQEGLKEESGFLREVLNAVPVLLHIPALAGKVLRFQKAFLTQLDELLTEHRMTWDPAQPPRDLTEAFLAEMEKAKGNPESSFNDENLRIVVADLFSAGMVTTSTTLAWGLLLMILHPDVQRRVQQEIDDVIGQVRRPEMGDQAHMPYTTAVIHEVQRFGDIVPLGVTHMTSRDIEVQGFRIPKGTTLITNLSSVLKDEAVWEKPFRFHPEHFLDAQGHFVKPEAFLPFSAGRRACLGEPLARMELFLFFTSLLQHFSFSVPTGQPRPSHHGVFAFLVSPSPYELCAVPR
The experiment in a line: Cytochrome P450 inhibition assay (cocktail method, human liver microsomes), dextromethorphan O-demethylation. Type of test: in vitro ADME. As to the method:
as §1, §2, §3

`CC(=NOCc1ccc([N+](=O)[O-])cc1)c1cccc(OCC(=O)O)c1` [Compound 2d, 2-(3-(1-(((4-nitrobenzyl)oxy)imino)ethyl)phenoxy)acetic acid] yielded a Kd at hCRY1 of 389 µM.
With `COC(=O)COc1cccc(C(C)=NOCc2ccc([N+](=O)[O-])cc2)c1` [Compound 5d, Methyl 2-(3-(1-(((4-nitrobenzyl)oxy)imino)ethyl)phenoxy)acetate], the IC50 on CYP2C9 and at CYP2D6 was more than 50 µM throughout.

By Kd is commonly meant the concentration at which binding is half-saturated. A lower Kd goes with tighter binding. What is called IC50 is the concentration that gives 50% inhibition. A lower IC50 goes with inhibition by little substance.

(Values after article PMC8225008, “Development of Non-Ethoxypropanoic Acid Type Cryptochrome Inhibitors with Circadian Molecular Clock-Enhancing Activity by Bioisosteric Replacement” (Pharmaceuticals, 2021).)
